Measured values as given in US8637496B2, “Compounds having a monogalactosyldiacylglycerol synthase inhibitory activity as herbicide or algaecide, herbicide and algaecide compositions” (Commissariat a l'Energie Atomique, priority 2007, dated 2014).
Where a name gives a salt, the structure may show the parent alone.

Tests used:
[1] = target: T1, MGDG synthase in isolated spinach chloroplast envelope membranes (Spinacia oleracea, UniProt Q9SM44); test: MGDG synthase activity in envelope membrane fractions isolated from spinach chloroplasts; type: biochemical; settings: Table 1, obtained in the same manner as FIG. 4; read-out: Inhibitory effect on MGDG synthesis in isolated spinach chloroplast envelope membranes
T1 construct: envelope membranes purified from the lysate by sucrose centrifugation gradient; from tissue; host or cells: envelope membranes of chloroplasts from spinach leaves
T1 sequence (Q9SM44 99-522): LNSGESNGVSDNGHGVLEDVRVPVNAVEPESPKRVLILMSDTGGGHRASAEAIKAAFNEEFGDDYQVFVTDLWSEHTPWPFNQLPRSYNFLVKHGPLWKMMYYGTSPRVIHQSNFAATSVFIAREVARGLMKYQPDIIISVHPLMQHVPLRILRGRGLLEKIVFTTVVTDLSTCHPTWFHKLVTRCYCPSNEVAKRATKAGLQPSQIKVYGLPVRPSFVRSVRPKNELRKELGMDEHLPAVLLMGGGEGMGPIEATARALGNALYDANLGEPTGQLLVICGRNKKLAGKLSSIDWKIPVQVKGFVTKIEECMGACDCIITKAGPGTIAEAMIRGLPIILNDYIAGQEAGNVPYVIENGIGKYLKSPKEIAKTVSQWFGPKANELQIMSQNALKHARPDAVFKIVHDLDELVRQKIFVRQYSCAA
Description: All the operations have been carried out as described in the article by Maréchal, E. et al., J. Biol. Chem., 1995, 270, 5714-5722. Crude chloroplasts were obtained from 3-4 kg of spinach leaves and purified by isopycnic centrifugation using Percoll gradients. Purified intact chloroplasts have then been lysed in hypotonic medium and envelope membranes purified from the lysate by sucrose centrifugation gradient as described in the article by Douce, R. and Joyard, J., (1982) in Methods in Chloroplast Molecular Biology (Edelman, M., Hallick R and Chua N H eds), pp 239-256, Elsevier Science Publishers B.V. Amsterdam.
MGDG synthase activity was assayed as described in the article by Maréchal et al. (1995).

[2] = test system: Chlamydomonas reinhardtii; test: Chlamydomonas reinhardtii growth assay; type: cell-based; settings: day three (d=3)
Procedure: An axenic suspension of Chlamydomonas reinhardtii (10 μl) is introduced in a liquid TAP medium (Tris-Acetate-Phosphate medium, as described by Rochaix et al., (The Molecular Biology of Chloroplasts and Mitochondria in Chlamydomeonas; Advances in Photosynthesis, (1998) Vol. 7. Kluwer Academic Publishers, Dordrecht, The Netherlands) with or without compound according to the invention. The compounds to be tested have been solubilized in dimethylsulfoxide (DMSO) and supplied directly in the growth medium, at concentrations ranging from 0 to 200 μM. Final concentration of DMSO in medium was 10%. Chlamydomonas suspensions were then grown at 20° C., under continuous light (50 μE.m^−2.s^−1). Growth was assessed by counting the algae in a 40 μl aliquot using a Malassez cell and examining the cell vitality by standard microscopic methods.
Control herbicide is Triclosan.

| SMILES | IC50 [1] [µM] | morphology of Chlamydomonas when incubated with compound (FIG. 6) [2] |
| --- | --- | --- |
| O=c1[nH]c2ccccc2n1C1CCN(C(=S)OCCOCc2ccccc2)CC1 [Compound 20, O-2-(benzyloxy)ethyl 4-(1,2-dihydro-2-oxobenzo[d]imidazol-3-yl)piperidine-1-carbothioate] | 100 to 500 | fails to divide |
| O=C(OC1CN(C(c2ccccc2)c2ccccc2)C1)N1CCC(n2c(=O)[nH]c3ccccc32)CC1 [Compound 13, 1-benzhydrylazetidin-3-yl 4-(1,2-dihydro-2-oxobenzo[d]imidazol-3-yl)piperidine-1-carboxylate] | 100 to 500 | fails to divide |
| O=C(OCCN(Cc1ccccc1)c1ccccc1)N1CCC(n2c(=O)[nH]c3ccccc32)CC1 [Compound 35, 2-(N-benzyl-N-phenylamino)ethyl 4-(1,2-dihydro-2-oxobenzo[d]imidazol-3-yl)piperidine-1-carboxylate] | 40 |  |
| C[C@@H](COC(=O)N1CCC(n2c(=O)[nH]c3ccccc32)CC1)N(Cc1ccccc1)Cc1cccc(Oc2ccccc2)c1 [Compound 55, (S)-2-(benzyl(3-phenoxybenzyl)amino)propyl 4-(2-oxo-2,3-dihydro-1H-benzo[d]imidazol-1-yl)piperidine-1-carboxylate hydrochloride] | 40 |  |
| O=C(OCCN(Cc1ccccc1)Cc1ccncc1)N1CCC(n2c(=O)[nH]c3ccccc32)CC1 [Compound 44, 2-(benzyl(pyridin-4-ylmethyl)amino)ethyl 4-(2-oxo-2,3-dihydro-1H-benzo[d]imidazol-1-yl)piperidine-1-carboxylate] | 45 |  |
| CC(COC(=O)N1CCC(n2c(=O)[nH]c3ccccc32)CC1)N(CCCOCc1ccccc1)Cc1ccccc1 (stereo not shown) [Compound 89, 2-(benzyl(3-(benzyloxy)propyl)amino)propyl 4-(2-oxo-2,3-dihydro-1H-benzo[d]imidazol-1-yl)piperidine-1-carboxylate] | 40 |  |
| C[C@@H](CNC(=S)N1CCC(n2c(=O)[nH]c3ccccc32)CC1)N(Cc1ccccc1)Cc1ccccc1 [Compound 23, N—((S)-2-(dibenzylamino)propyl)-4-(1,2-dihydro-2-oxobenzo[d]imidazol-3-yl)piperidine-1-carbothioamide] | 50 |  |
| O=C(OCCN(Cc1ccccc1)Cc1cccc(Cl)c1)N1CCC(n2c(=O)[nH]c3ccccc32)CC1 [Compound 50, 2-(benzyl(3-chlorobenzyl)amino)ethyl 4-(2-oxo-2,3-dihydro-1H-benzo[d]imidazol-1-yl)piperidine-1-carboxylate hydrochloride] | 8 |  |
| O=C(OCCN(Cc1ccccc1)Cc1ccc(Br)cc1)N1CCC(n2c(=O)[nH]c3ccccc32)CC1 [Compound 40, 2-(benzyl(4-bromobenzyl)amino)ethyl 4-(2-oxo-2,3-dihydro-1H-benzo[d]imidazol-1-yl)piperidine-1-carboxylate hydrochloride] | 15 |  |
| C[C@@H](COC(=O)N1CCC(n2c(=O)n(C(=O)c3ccccc3)c3ccccc32)CC1)N(Cc1ccccc1)Cc1ccccc1 [Compound 21, (S)-2-(dibenzylamino)propyl 4-(1,2-dihydro-2-oxo-1-(benzoyl)benzo[d]imidazol-3-yl)piperidine-1-carboxylate] | 50 |  |
| O=C(OCCN(Cc1ccccc1)Cc1ccccc1)N1CCC(n2c(=O)[nH]c3ccccc32)CC1 [Compound 11, 2-(dibenzylamino)ethyl 4-(1,2-dihydro-2-oxobenzo[d]imidazol-3-yl)piperidine-1-carboxylate] | 15 | fails to divide |
| O=C(OCCN(Cc1ccccc1)Cc1ccnc2ccccc12)N1CCC(n2c(=O)[nH]c3ccccc32)CC1 [Compound 57, 2-(benzyl(quinolin-4-ylmethyl)amino)ethyl 4-(2-oxo-2,3-dihydro-1H-benzo[d]imidazol-1-yl)piperidine-1-carboxylate hydrochloride] | 75 |  |
| O=C(OCCCN(Cc1ccccc1)Cc1cccnc1)N1CCC(n2c(=O)[nH]c3ccccc32)CC1 [Compound 58, 3-(benzyl(pyridin-3-ylmethyl)amino)propyl 4-(2-oxo-2,3-dihydro-1H-benzo[d]imidazol-1-yl)piperidine-1-carboxylate hydrochloride] | 17 |  |
| COc1ccc(CN(CCOC(=O)N2CCC(n3c(=O)[nH]c4ccccc43)CC2)Cc2ccccc2)cc1 [Compound 47, 2-(benzyl(4-methoxybenzyl)amino)ethyl 4-(2-oxo-2,3-dihydro-1H-benzo[d]imidazol-1-yl)piperidine-1-carboxylate hydrochloride] | 15 |  |
| C[C@@H](COC(=O)N1CCC(n2c(=O)[nH]c3ccccc32)C1)N(Cc1ccccc1)Cc1ccccc1 (stereo partly drawn) [Compound 6, (S)-2-(dibenzylamino)propyl 3-(1,2-dihydro-2-oxobenzo[d]imidazol-3-yl)pyrrolidine-1-carboxylate] | 50 |  |
| O=C(OCCN(Cc1ccccc1)Cc1c(F)cccc1F)N1CCC(n2c(=O)[nH]c3ccccc32)CC1 [Compound 78, 2-(benzyl(2,6-difluorobenzyl)amino)ethyl 4-(2-oxo-2,3-dihydro-1H-benzo[d]imidazol-1-yl)piperidine-1-carboxylate] | 8 |  |
| O=C(OCCCN(Cc1ccccc1)Cc1ccoc1)N1CCC(n2c(=O)[nH]c3ccccc32)CC1 [Compound 80, 3-(benzyl(furan-3-ylmethyl)amino)propyl 4-(2-oxo-2,3-dihydro-1H-benzo[d]imidazol-1-yl)piperidine-1-carboxylate] | 50 |  |
| O=C(OCCN(Cc1ccccc1)Cc1ccc(Cl)cc1)N1CCC(n2c(=O)[nH]c3ccccc32)CC1 [Compound 74, 2-(benzyl(4-chlorobenzyl)amino)ethyl 4-(2-oxo-2,3-dihydro-1H-benzo[d]imidazol-1-yl)piperidine-1-carboxylate] | 8 |  |
| CCN(CCOC(=O)N1CCC(n2c(=O)[nH]c3ccccc32)CC1)c1ccccc1 [Compound 17, 2-(ethyl(phenyl)amino)ethyl 4-(2-oxo-2,3-dihydro-1H-benzo[d]imidazol-1-yl)piperidine-1-carboxylate] | 200 |  |
| C[C@@H](COC(=O)N1CCC(n2c(=O)[nH]c3ccccc32)CC1)N(Cc1ccccc1)Cc1ccco1 [Compound 79, (S)-2-(benzyl(furan-2-ylmethyl)amino)propyl 4-(2-oxo-2,3-dihydro-1H-benzo[d]imidazol-1-yl)piperidine-1-carboxylate] | 25 |  |
| C[C@@H](COC(=O)N1CCC(n2c(=O)[nH]c3ccccc32)CC1)N(Cc1ccccc1)Cc1ccnc2ccccc12 [Compound 53, (S)-2-(benzyl(quinolin-4-ylmethyl)amino)propyl 4-(2-oxo-2,3-dihydro-1H-benzo[d]imidazol-1-yl)piperidine-1-carboxylate hydrochloride] | 60 |  |
| C[C@@H](COC(=O)N1CCC(n2cnc3ccccc32)CC1)N(Cc1ccccc1)Cc1ccccc1 [Compound 1, (S)-2-(dibenzylamino)propyl 4-(1H-benzo[d]imidazol-1-yl)piperidine-1-carboxylate] | 100 to 500 |  |
| O=C(OCCN(Cc1ccccc1)Cc1ccccc1OCc1ccccc1)N1CCC(n2c(=O)[nH]c3ccccc32)CC1 [Compound 76, 2-(benzyl(2-(benzyloxy)benzyl)amino)ethyl 4-(2-oxo-2,3-dihydro-1H-benzo[d]imidazol-1-yl)piperidine-1-carboxylate] | 20 |  |
| O=C(OCCN(Cc1ccccc1)Cc1cccc(OCc2ccccc2)c1)N1CCC(n2c(=O)[nH]c3ccccc32)CC1 [Compound 81, 2-(benzyl(3-(benzyloxy)benzyl)amino)ethyl 4-(2-oxo-2,3-dihydro-1H-benzo[d]imidazol-1-yl)piperidine-1-carboxylate] | 8 |  |
| O=C(OCCN(C/C=C/c1ccccc1)Cc1ccccc1)N1CCC(n2c(=O)[nH]c3ccccc32)CC1 [Compound 82, (E)-2-(benzyl(cinnamyl)amino)ethyl 4-(2-oxo-2,3-dihydro-1H-benzo[d]imidazol-1-yl)piperidine-1-carboxylate] | 50 |  |
